Measured values as given in patent US20240116985A1, “STAPLED PEPTIDES AND METHODS THEREOF” (priority 2020, published 2024).
pEC50: −log10 of the molar value.

Key:
[1] = target: T1, full-length B-Catenin (Uniprot ID P35222) (Homo sapiens, UniProt P35222); assay: Alphascreen binding assay (beta-catenin / biotin-TCF4 10-53)
T1 construct: 65 nM full-length B-Catenin (Uniprot ID P35222)
T1 sequence (P35222 1-781): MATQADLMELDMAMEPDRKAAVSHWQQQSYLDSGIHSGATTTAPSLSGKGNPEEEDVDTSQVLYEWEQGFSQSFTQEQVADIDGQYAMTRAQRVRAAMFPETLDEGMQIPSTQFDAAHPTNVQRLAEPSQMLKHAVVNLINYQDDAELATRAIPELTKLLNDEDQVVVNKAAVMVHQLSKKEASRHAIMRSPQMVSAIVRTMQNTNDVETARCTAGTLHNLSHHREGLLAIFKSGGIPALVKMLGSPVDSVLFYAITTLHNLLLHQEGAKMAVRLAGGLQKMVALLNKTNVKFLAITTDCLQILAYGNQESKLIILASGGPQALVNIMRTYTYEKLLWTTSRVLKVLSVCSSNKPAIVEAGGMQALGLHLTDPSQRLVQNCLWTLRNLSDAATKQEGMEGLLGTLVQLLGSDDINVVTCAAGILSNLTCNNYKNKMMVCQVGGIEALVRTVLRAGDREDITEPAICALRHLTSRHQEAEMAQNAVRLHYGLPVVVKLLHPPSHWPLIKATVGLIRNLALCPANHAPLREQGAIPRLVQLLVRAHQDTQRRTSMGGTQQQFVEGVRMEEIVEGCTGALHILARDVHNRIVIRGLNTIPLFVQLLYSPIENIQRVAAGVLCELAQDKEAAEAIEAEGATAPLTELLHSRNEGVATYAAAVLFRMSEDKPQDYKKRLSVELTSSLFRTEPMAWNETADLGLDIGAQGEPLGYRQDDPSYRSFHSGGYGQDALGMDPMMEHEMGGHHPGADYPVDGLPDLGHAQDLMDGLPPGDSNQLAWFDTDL
Experimental: In some embodiments, an assay is an Alphascreen binding assay. A useful protocol is described below as an example.
Alphascreen binding assay: Using the AlphaScreen Histidine (Nickel Chelate) Detection Kit (PerkinElmer), peptide solutions were prepared in buffer (50 mM Tris pH 8.0, 250 mM NaCl, 2% glycerol, 0.03% Tween-20, 0.01% TritonX-100, 0.1% BSA w/v) using a 3-fold serial dilution from 10 uM to 5 nM. Probe solution (65 nM full-length B-Catenin (Uniprot ID P35222), mixed with 10 nM biotin labeled TCF4 residues 10-53 (Uniprot ID Q9NQB0) peptide in buffer) was prepared and 4 uL per well was plated in a white polystyrene 384-well plate (Corning). Equal volume of the titrated peptide was added to the plate and incubated for 15 minutes at 20° C. Then 4 uL of donor and 4 uL acceptor beads at 10 ug/mL were added to the plate, for a 16 uL reaction pool and protected from light for 60 minutes at 20° C. prior to read. Reads were performed on a CLARIOstar plate reader (BMG Labtech) in duplicate, and data were fitted to a 1:1 binding model with hill slope using an in-house script. All provided concentrations are final concentrations.

CHI Log D procedure = format: physicochemical; conditions: for CHI Log D: pH 7.4; for chromatographic logD: pH 7.4, CHI Log D

| SMILES | pEC50 [1] | CHI Log D (CHI Log D procedure) | chromatographic logD (CHI Log D procedure) |
| --- | --- | --- | --- |
| CC(=O)N1CCC[C@]12CC=CCCCC1(CCCC=CCCCCCC[C@@](C)(C(=O)N[C@@H](Cc3ccccc3)C(=O)N[C@@H](Cc3c[nH]c4ccccc34)C(=O)N[C@@H](CCC(N)=O)C(N)=O)NC(=O)[C@H](C(C)C)NC(=O)[C@H](Cc3ccccc3)NC(=O)[C@H](C)NC(=O)[C@H](C)NC(=O)[C@H](CCC(=O)O)NC(=O)[C@H](CC(=O)O)NC1=O)NC(=O)[C@H](C)NC(=O)[C@H](CC(N)=O)NC2=O (stereo partly drawn) [I-199, Ac-PL3-Asn-Ala-B5-Asp-Glu-Ala-Ala-Phe-Val-S8-Phe-Trp-Gln-NH2] | 6.10 | 2.262 |  |
| CC(=O)N1CCC[C@]12CC=CCCCC1(CCCC=CCCCCCC[C@@](C)(C(=O)N[C@@H](Cc3ccccc3)C(=O)N[C@@H](Cc3c[nH]c4ccc(C(F)(F)F)cc34)C(=O)N[C@@H](CCC(N)=O)C(N)=O)NC(=O)[C@H](C(C)C)NC(=O)[C@H](Cc3ccccc3)NC(=O)[C@H](C)NC(=O)[C@H](C)NC(=O)[C@H](CCC(=O)O)NC(=O)[C@H](CC(=O)O)NC1=O)NC(=O)[C@H](C)NC(=O)[C@H](CC(=O)O)NC2=O (stereo partly drawn) [I-169, Ac-PL3-Asp-Ala-B5-Asp-Glu-Ala-Ala-Phe-Val-S8-Phe-5CF3W-Gln-NH2] | 5.04 |  | 2.18 |
| CC[C@H](C)[C@H](NC(=O)[C@H](CC(=O)O)NC(=O)[C@H](C)NC(C)=O)C(=O)N[C@]1(C)CCN(C)C(=O)OCC=CCCCCC[C@@](C)(C(=O)N[C@@H](Cc2ccccc2)C(=O)N[C@@H](Cc2c[nH]c3ccccc23)C(=O)N[C@@H](C)C(N)=O)NC(=O)[C@H](C)NC(=O)[C@H](Cc2ccccc2)NC(=O)[C@H](C)NC(=O)[C@H](C)NC(=O)[C@H](CCC(=O)O)NC(=O)[C@H](CC(=O)O)NC1=O [I-155, Ac-Ala-Asp-Ile-RdN-Asp-Glu-Ala-Ala-Phe-Ala-S7-Phe-Trp-Ala-NH2] | 6.13 | 1.415 |  |
| CC(=O)N1CCC[C@]12CC=CCCCC1(CCCC=CCCCCCC[C@@](C)(C(=O)N[C@@H](Cc3ccccc3)C(=O)N[C@@H](Cc3c[nH]c4ccccc34)C(=O)N[C@@H](CCC(N)=O)C(N)=O)NC(=O)[C@H](C(C)C)NC(=O)[C@H](Cc3ccccc3)NC(=O)[C@H](C)NC(=O)[C@H](C)NC(=O)[C@H](CCC(=O)O)NC(=O)[C@H](CC(=O)O)NC1=O)NC(=O)[C@H](C)NC(=O)[C@H](Cc1ccccc1)NC2=O (stereo partly drawn) [I-201, Ac-PL3-Phe-Ala-B5-Asp-Glu-Ala-Ala-Phe-Val-S8-Phe-Trp-Gln-NH2] | 5.21 |  | 2.94 |
| CC[C@H](C)[C@H](NC(=O)[C@H](CC(=O)O)NC(C)=O)C(=O)N[C@]1(C)CCN(C)C(=O)OCC=CCCCCC[C@@](C)(C(=O)N[C@@H](Cc2ccccc2)C(=O)N[C@@H](Cc2c[nH]c3ccccc23)C(N)=O)NC(=O)[C@H](CCC(N)=O)NC(=O)[C@H](Cc2ccccc2)NC(=O)[C@H](C)NC(=O)[C@H](C)NC(=O)[C@H](CC(=O)O)NC(=O)[C@H](CC(=O)O)NC1=O [I-151, Ac-Asp-Ile-RdN-Asp-Asp-Ala-Ala-Phe-Gln-S7-Phe-Trp-NH2] | 5.26 |  | 1.35 |
| CC(=O)N1CCC[C@]12CC=CCCCC1(CCCC=CCCCCCC[C@@](C)(C(=O)N[C@@H](Cc3ccccc3)C(=O)N[C@@H](Cc3c[nH]c4ccccc34)C(N)=O)NC(=O)[C@H](C(C)C)NC(=O)[C@H](Cc3ccccc3)NC(=O)[C@H](C)NC(=O)[C@H](C)NC(=O)[C@H](CC(=O)O)NC(=O)[C@H](CC(=O)O)NC1=O)NC(=O)[C@H](C)NC(=O)[C@H](CC(=O)O)NC2=O (stereo partly drawn) [I-289, Ac-PL3-Asp-Ala-B5-Asp-Asp-Ala-Ala-Phe-Val-S8-Phe-Trp-NH2] | 6.20 | 2.242 |  |
| CC(=O)N1CCC[C@]12CC=CCCCC1(CCCC=CCCCCCC[C@@](C)(C(=O)N[C@@H](Cc3cccc(C(F)(F)F)c3)C(=O)N[C@@H](Cc3c[nH]c4ccccc34)C(=O)N[C@@H](CCC(N)=O)C(N)=O)NC(=O)[C@H](C(C)C)NC(=O)[C@H](Cc3ccccc3)NC(=O)[C@H](C)NC(=O)[C@H](C)NC(=O)[C@H](CC(=O)O)NC(=O)[C@H](CC(=O)O)NC1=O)NC(=O)[C@H](C)NC(=O)[C@H](CC(=O)O)NC2=O (stereo partly drawn) [I-251, Ac-PL3-Asp-Ala-B5-Asp-Asp-Ala-Ala-Phe-Val-S8-3F3MeF-Trp-Gln-NH2] | 5.92 | 2.299 |  |
| CC(=O)N1CCC[C@]12CC=CCCCC1(CCCC=CCCCCCC[C@@](C)(C(=O)N[C@@H](Cc3ccccc3)C(=O)N[C@@H](Cc3ccc4ccccc4c3)C(N)=O)NC(=O)[C@H](C(C)C)NC(=O)[C@H](Cc3ccccc3)NC(=O)[C@H](C)NC(=O)[C@H](C)NC(=O)[C@H](CCC(=O)O)NC(=O)[C@H](CC(=O)O)NC1=O)NC(=O)[C@H](C)NC(=O)[C@H](CC(=O)O)NC2=O (stereo partly drawn) [I-141, Ac-PL3-Asp-Ala-B5-Asp-Glu-Ala-Ala-Phe-Val-S8-Phe-2NapA-NH2] | 5.26 |  | 2.43 |
| CC(=O)N[C@@H](Cc1ccccc1)C(=O)N[C@@H](CC(=O)O)C(=O)N[C@@H](C)C(=O)N[C@]1(C)CCCCCCC=CCOC(=O)N2CC[C@@](C(=O)N[C@@H](Cc3ccc(C(=O)O)cc3)C(=O)N[C@@H](Cc3c[nH]c4ccccc34)C(=O)N[C@@H](CCC(N)=O)C(N)=O)(C2)NC(=O)[C@H](C(C)C)NC(=O)[C@H](Cc2ccccc2)NC(=O)[C@H](C)NC(=O)[C@H](C)NC(=O)[C@H](CC(=O)O)NC(=O)[C@H](CC(=O)O)NC1=O [I-110, Ac-Phe-Asp-Ala-R8-Asp-Asp-Ala-Ala-Phe-Val-PyrS-4COOHF-Trp-Gln-NH2] | 5.07 | 0.769 |  |
| CC(=O)N1CCC[C@]12CC=CCCCC1(CCCC=CCCCCCC[C@@](C)(C(=O)N[C@@H](Cc3ccccc3)C(=O)N[C@@H](Cc3c[nH]c4ccccc34)C(=O)N[C@@H](CCC(N)=O)C(N)=O)NC(=O)[C@H](C(C)C)NC(=O)[C@H](Cc3ccccc3)NC(=O)[C@H](C)NC(=O)[C@H](C)NC(=O)[C@H](Cc3ccc(N)cc3)NC(=O)[C@H](CC(=O)O)NC1=O)NC(=O)[C@H](C)NC(=O)[C@H](CC(=O)O)NC2=O (stereo partly drawn) [I-324, Ac-PL3-Asp-Ala-B5-Asp-4AmPhe-Ala-Ala-Phe-Val-S8-Phe-Trp-Gln-NH2] | 5.76 |  | 2.6 |
| CC(=O)N[C@@H](Cc1ccccc1)C(=O)N[C@@H](CC(=O)O)C(=O)N[C@@H](C)C(=O)N[C@]1(C)CCCCCC=CCOC(=O)N2CC[C@@](C(=O)N[C@@H](Cc3ccccc3)C(=O)N[C@@H](Cc3c[nH]c4ccccc34)C(=O)N[C@@H](CCC(N)=O)C(N)=O)(C2)NC(=O)[C@H](C(C)C)NC(=O)[C@H](Cc2ccccc2)NC(=O)[C@H](C)NC(=O)[C@H](C)NC(=O)[C@H](CC(=O)O)NC(=O)[C@H](CC(=O)O)NC1=O [I-31, Ac-Phe-Asp-Ala-R7-Asp-Asp-Ala-Ala-Phe-Val-PyrS-Phe-Trp-Gln-NH2] | 5.14 | 1.245 |  |
| CC[C@H](C)[C@H](NC(=O)[C@H](CC(=O)O)NC(=O)[C@H](C)NC(C)=O)C(=O)N[C@]1(C)CCN(C)C(=O)OCC=CCCCCC[C@@](C)(C(=O)N[C@@H](Cc2ccccc2)C(=O)N[C@@H](Cc2c[nH]c3ccccc23)C(=O)N[C@@H](Cc2c[nH]cn2)C(N)=O)NC(=O)[C@H](CCC(N)=O)NC(=O)[C@H](Cc2ccccc2)NC(=O)[C@H](C)NC(=O)[C@H](C)NC(=O)[C@H](CC(=O)O)NC(=O)[C@H](CC(=O)O)NC1=O [I-65, Ac-Ala-Asp-Ile-RdN-Asp-Asp-Ala-Ala-Phe-Gln-S7-Phe-Trp-His-NH2] | 5.68 | 1.274 |  |
